Experimental data as given in patent publication US20250206707A1, “NOVEL COMPOUND INDUCING EXPRESSION OF ANTI-AGING GENE KLOTHO” (KLOTHO SCIENCES CO., LTD., priority 2022, published 2025).

What was measured:
[1] = tested on: intracellular reactive oxygen species (ROS) in renal tubule epithelial cells (RPTECs); assay: Analysis of intracellular reactive oxygen species (ROS) in RPTECs; type: cell-based, human; conditions: RPTEC cells, 2.5 µM compound, 6 h; FIG. 4
Procedure: Renal tubule epithelial cells (RPTECs) were treated with each KS compound of Example 1 to determine the changes in the amount of intracellular reactive oxygen species (ROS).
RPTEC cells in culture were incubated with 2.5 µM of each KS compound for 6 h. The amount of ROS present in the cells was measured by adding Reactive Oxygen Detection Reagents (Invitrogen) and incubating for 1 h. The change in fluorescence was measured using a spectrophotometer.
FIG. 4 is a graph showing the amount of ROS remaining in RPTEC cells. It was confirmed that the amount of ROS in the cells treated with KS103 and KS104 compounds was reduced by about 30% compared to the cells treated with solvent (DMSO) alone.

[2] = tested on: TXN, AKT1, NR4A3, NLRP3, FOXP3 genes; assay: Expression changes in oxidative stress-related genes (NGS) in aged RPTEC cells; type: cell-based, human; conditions: 7th passage RPTEC, 2.5 μM, 6 hours, compared with 4-passage RPTEC, FIG. 5, FIG. 6
Procedure: 2.5 μM of each KS compound of Example 1 was added to relatively aged 7th passage (#7) renal tubular epithelial cells (RPTEC) cells, cultured for 6 hours, mRNA was collected, and total gene expression was analyzed using a next generation sequencer (NGS). To confirm changes in gene expression due to aging, through gene expression comparison with relatively young 4-passage (#4) RPTEC cells, genes with increased expression in young cells (TXN, AKT1, NR4A3, NLRP3, FOXP3 genes) were confirmed. The expression levels of these genes in young cells were compared to the expression change values caused by treatment with the compounds of Example 1 (senescent cells were treated with the compounds of Example 1, respectively).

[3] = tested on: Human retinal epithelial cells (ARPE); assay: Cytotoxicity evaluation (EX-cytox absorbance); type: cell-based; conditions: different concentrations, 24 hours incubation, EX-cytox 1 hour, FIG. 3
Procedure: Human retinal epithelial cells (ARPE) in culture were treated with KS compounds of Example 1 at different concentrations and incubated for 24 hours, followed by a 1-hour reaction with EX-cytox from GOGEN, and the change in absorbance was measured.

[4] = Stability evaluation with human liver microsomes (MS/MS analysis); type: in vitro ADME; conditions: human microsomes 0.5 mg/ml, 1 μM compound, 30 min, 37° C., with NADPH; tolbutamide as control; FIG. 1
Procedure: Each KS compound in Example 1 was dissolved in 10 mM DMSO, and tolbutamide, used as a standard, was dissolved in methanol at a concentration of 10 mM.
In a glass test tube (13×100 mm), 0.1 M KH2PO4 (147.5 μl), 0.1 M MgCl2 (25 μl), and 50 μl of human […] microsomes (mixed-gender pool) at a concentration of 0.5 mg/ml purchased from Corning Life Science and each KS compound solution were mixed to a final 1 μM of each KS compound solution, pre-incubated for 3 min in a shaking water bath (37° C., 40 rpm), and then incubated for 30 min in the presence or absence of 10 mM NADPH, 25 μL.
Aliquots of 50 μl were taken before the reaction and after the reaction, and then the reaction was stopped by adding […] of acetonitrile and vortexed for 1 min. The mixture was centrifuged (4,000 rpm, 4° C.) for 20 minutes, and each supernatant was transferred to a new glass test tube and dried for 2 hours using a centrifugal concentrator. After ensuring complete drying, 200 μl of 40% acetonitrile was added to each glass test tube and resuspended by vortexing for 1 minute. The resuspension solution was centrifuged for 10 minutes (4,000 rpm, 4° C.) and 150 μl of the supernatant was taken for HPLC-UV analysis. The Agilent 1200 series was used for HPLC-UV analysis and the Agilent 6410 was used for MS/MS analysis. The conditions used for the analysis were as follows: […]

[5] = tested on: human retinal pigment epithelial cells (ARPE); assay: Protective effect on retinal pigment epithelial cells against oxidative stress; type: cell-based; conditions: 2.5 μM compound, BSO 50 mM for 6 hours, Cyto X absorbance 450 nm, FIG. 7
Procedure: To determine the preventive or therapeutic effect of each KS compound of Example 1 on macular degeneration, the protection of retinal pigment epithelial cells against oxidative stress was determined.
First, human retinal pigment epithelial cells were tested using retinal pigment epithelial cells (ARPE) purchased from ATCC, USA. Equal numbers of 10,000 ARPE cells were added to each well, and after 18 hours of incubation, the cells were replaced with DMEM F-12 medium without serum (FBS).
Each KS compound was added at a concentration of 2.5 μM, and the cells were treated with buthionine sulfoximine (BSO) at a concentration of 50 mM for 6 hours to induce oxidative stress. To measure the viability of these cells, Cyto X (Cell viability assay kit) was added and the time-varying absorbance was measured at 450 nm.

[6] = tested on: klotho gene; assay: Klotho gene mRNA expression by PCR in RPTECs; type: cell-based, human; conditions: 6 hours exposure, FIG. 2
Procedure: Human renal tubular epithelial cells (RPTECs) were treated with each KS compound of Example 1 at different concentrations, and mRNA was collected from the cells 6 hours later, and the mRNA expression of the klotho gene was confirmed by PCR. Renal Proximal Tubular Epithelial Cells (RPTECs) were purchased from Lonza and cultured at 37° C., 5% CO2 and used in the experiments. Each KS compound was added to the medium of the cells and after 6 hours of exposure, RNA was isolated from the cells and converted to cDNA using reverse transcriptase and amplified by PCR method to determine the expression level. As a control, DMSO was added instead of the compound.
The primers used in the experiment are listed below.
The expression levels of the bands in the gel photographs were quantified using Image J and plotted on a graph. In the gel picture, the upper band represents the secreted form of klotho, and the lower band represents the membrane form of klotho.

Structure (SMILES) | reduction of the amount of ROS in the cells compared to cells treated with solvent (DMSO) alone [1] | expression of oxidative stress-related genes in aged cells versus young cells [2] | cytotoxicity [3] | microsomal stability [4] | protection against oxidative stress-induced cell death [5] | ability to express the klotho gene compared to KS101 as well as other fluorine-bound compounds [6] | expression effect on the klotho gene (mRNA, sum of secreted and membrane form bands) ([6]; different concentrations, Image J quantification)
Fc1ccc(Nc2nc3cc(F)c(F)cc3o2)cc1F [KS104, N-(3,4-difluorophenyl)-5,6-difluorobenzo[d]oxazol-2-amine] | about 30% | induced to a greater extent than in young cells | lowest cytotoxicity | best microsomal stability | inhibited oxidative stress-induced cell death | more than doubled | best expression effect
Fc1ccc2nc(Nc3ccc(F)c(F)c3)oc2c1 [KS103, N-(3,4-difluorophenyl)-6-fluorobenzo[d]oxazol-2-amine] | about 30% | – | – | – | inhibited oxidative stress-induced cell death | – | –
